Reference: US11896573B2, “Pharmaceutical compositions and pharmacokinetics of a gamma-hydroxybutyric acid derivative” (priority 2020, dated 2024)
Where two headings read alike, the source gives them in different places.

Assay: Multiple ascending dose study, plasma pharmacokinetics of Compound (1) and GHB
Format: in vivo, human
Details: for AUC(0-inf) / AUC(0-t) / Cmax / half-life / Tmax: human, plasma, oral; for Tmax: read-out: Compound (1) plasma Tmax, Median
Protocol: The plasma concentrations of Compound (1) and GHB in plasma in healthy human subjects were measured using liquid chromatography tandem mass-spectroscopy and evaluated using PHOENIX™ WINNONLIN® version 8.1 (Pharsight Corporation, USA) and MICROSOFT® EXCEL® (Microsoft Corporation, USA).
All randomized subjects who received Compound (1), with available pharmacokinetic (PK) data and without relevant deviations interfering with the PK evaluations, were included. Subjects who received only placebo were excluded from the PK population. In addition, the PK population was used for the summaries and analyses of all PK data.
A multiple ascending dose study was undertaken to evaluate the pharmacokinetics of multiple doses of Compound (1) in 3 cohorts of healthy subjects (with 8 subjects/cohort). Within each cohort, the subjects were randomized to receive Compound (1) or placebo at a ratio of 6:2 (active: placebo) for 7 days (or up to 9 days if the cohort included a titration period).
After fasting for at least 3 hours following a standard meal, subjects were randomized on Day 1 and the first dose of study drug (either target dose or titration dose) was administered. The first cohort of subjects (Cohort 8) received the second dose administration at approximately four hours after receiving the first dose. The subsequent […] cohorts (Cohorts 9 and 10) received only one dose per day.
For the first cohort (Cohort 8), the dose used was 6.0 g divided into two equal doses four hours apart for 7 days starting from Day 4 “Dose Day 1” to Day 10 “Dose Day 7”. Subsequent Cohorts 9, 10 received a single daily dose of 4.5 g and 6.0 g during the titration period (Day 1 for Cohort 9, Day 1 and Day 2 for Cohort 10, and after a titration period for 7 days starting from Day 4 “Dose Day 1” to Day 10 “Dose Day 7”. Cohort 11 was not conducted due to API availability.

[1] = Cohort 10 (6.0 g/day in a single dose), Dosing Day 10

## CC(C)[C@H](N)C(=O)OCCCC(=O)O [Compound (1), 4-((L-valyl)oxy)butanoic acid]
Cohort 10 (6.0 g/day in a single dose), Dosing Day 4
  Compound (1) plasma Tmax, Min: 19.8 min
[1]
  Compound (1) CL/F, Max: 575 L/h
  Compound (1) CL/F, Mean: 395 L/h
  Compound (1) CL/F, Median: 354 L/h
  Compound (1) CL/F, Min: 284 L/h
  Compound (1) plasma AUC0-inf, Max: 21100 ng·h/mL
  Compound (1) plasma AUC0-inf, Min: 10400 ng·h/mL
  Compound (1) plasma AUC0-tlast, Max: 21100 ng·h/mL
  Compound (1) plasma AUC0-tlast, Min: 10400 ng·h/mL
  Compound (1) plasma Cmax, Max: 24500 ng/mL
  Compound (1) plasma Cmax, Min: 11700 ng/mL
  Compound (1) plasma T1/2, Max: 31.2 min
  Compound (1) plasma T1/2, Min: 17.4 min
4.5 g/day, Cohort 9 (4.5 g/day in a single dose), Dosing Day 4, read-out: Compound (1) plasma AUC0-inf, Mean
  AUC(0-inf): 12000 ng·h/mL
4.5 g/day, Cohort 9 (4.5 g/day in a single dose), Dosing Day 4, read-out: Compound (1) plasma AUC0-inf, Median
  AUC(0-inf): 11800 ng·h/mL
4.5 g/day, Cohort 9 (4.5 g/day in a single dose), Dosing Day 4, read-out: Compound (1) plasma AUC0-tlast, Mean
  AUC(0-t): 11300 ng·h/mL
4.5 g/day, Cohort 9 (4.5 g/day in a single dose), Dosing Day 4, read-out: Compound (1) plasma AUC0-tlast, Median
  AUC(0-t): 11700 ng·h/mL
4.5 g/day, Cohort 9 (4.5 g/day in a single dose), Dosing Day 4, read-out: Compound (1) plasma Cmax, Mean
  Cmax: 15600 ng/mL
4.5 g/day, Cohort 9 (4.5 g/day in a single dose), Dosing Day 4, read-out: Compound (1) plasma Cmax, Median
  Cmax: 16800 ng/mL
4.5 g/day, Cohort 9 (4.5 g/day in a single dose), Dosing Day 4, read-out: Compound (1) plasma T1/2, Mean (converted)
  half-life: 29.4 min
4.5 g/day, Cohort 9 (4.5 g/day in a single dose), Dosing Day 4, read-out: Compound (1) plasma T1/2, Median (converted)
  half-life: 32.4 min
4.5 g/day, Cohort 9 (4.5 g/day in a single dose), Dosing Day 10, read-out: Compound (1) plasma AUC0-inf, Mean
  AUC(0-inf): 10800 ng·h/mL
4.5 g/day, Cohort 9 (4.5 g/day in a single dose), Dosing Day 10, read-out: Compound (1) plasma AUC0-inf, Median
  AUC(0-inf): 10200 ng·h/mL
4.5 g/day, Cohort 9 (4.5 g/day in a single dose), Dosing Day 10, read-out: Compound (1) plasma AUC0-tlast, Mean
  AUC(0-t): 10700 ng·h/mL
4.5 g/day, Cohort 9 (4.5 g/day in a single dose), Dosing Day 10, read-out: Compound (1) plasma AUC0-tlast, Median
  AUC(0-t): 10100 ng·h/mL
4.5 g/day, Cohort 9 (4.5 g/day in a single dose), Dosing Day 10, read-out: Compound (1) plasma Cmax, Mean
  Cmax: 14800 ng/mL
4.5 g/day, Cohort 9 (4.5 g/day in a single dose), Dosing Day 10, read-out: Compound (1) plasma Cmax, Median
  Cmax: 15900 ng/mL
4.5 g/day, Cohort 9 (4.5 g/day in a single dose), Dosing Day 10, read-out: Compound (1) plasma T1/2, Mean (converted)
  half-life: 33.6 min
4.5 g/day, Cohort 9 (4.5 g/day in a single dose), Dosing Day 10, read-out: Compound (1) plasma T1/2, Median (converted)
  half-life: 33.6 min
6 g/day, Cohort 8 (6.0 g/day divided into equal 2 doses), Dosing Day 4, read-out: Compound (1) plasma AUC0-inf, Mean
  AUC(0-inf): 14500 ng·h/mL
6 g/day, Cohort 8 (6.0 g/day divided into equal 2 doses), Dosing Day 4, read-out: Compound (1) plasma AUC0-inf, Median
  AUC(0-inf): 14800 ng·h/mL
6 g/day, Cohort 8 (6.0 g/day divided into equal 2 doses), Dosing Day 4, read-out: Compound (1) plasma AUC0-tlast, Mean
  AUC(0-t): 14400 ng·h/mL
6 g/day, Cohort 8 (6.0 g/day divided into equal 2 doses), Dosing Day 4, read-out: Compound (1) plasma AUC0-tlast, Median
  AUC(0-t): 14800 ng·h/mL
6 g/day, Cohort 8 (6.0 g/day divided into equal 2 doses), Dosing Day 4, read-out: Compound (1) plasma Cmax, Mean
  Cmax: 12100 ng/mL
6 g/day, Cohort 8 (6.0 g/day divided into equal 2 doses), Dosing Day 4, read-out: Compound (1) plasma Cmax, Median
  Cmax: 11500 ng/mL
6 g/day, Cohort 8 (6.0 g/day divided into equal 2 doses), Dosing Day 4, read-out: Compound (1) plasma T1/2, Mean (converted)
  half-life: 31.8 min
6 g/day, Cohort 8 (6.0 g/day divided into equal 2 doses), Dosing Day 4, read-out: Compound (1) plasma T1/2, Median (converted)
  half-life: 16.2 min
6 g/day, Cohort 8 (6.0 g/day divided into equal 2 doses), Dosing Day 10, read-out: Compound (1) plasma AUC0-inf, Mean
  AUC(0-inf): 14900 ng·h/mL
6 g/day, Cohort 8 (6.0 g/day divided into equal 2 doses), Dosing Day 10, read-out: Compound (1) plasma AUC0-inf, Median
  AUC(0-inf): 14100 ng·h/mL
6 g/day, Cohort 8 (6.0 g/day divided into equal 2 doses), Dosing Day 10, read-out: Compound (1) plasma AUC0-tlast, Mean
  AUC(0-t): 14800 ng·h/mL
6 g/day, Cohort 8 (6.0 g/day divided into equal 2 doses), Dosing Day 10, read-out: Compound (1) plasma AUC0-tlast, Median
  AUC(0-t): 14100 ng·h/mL
6 g/day, Cohort 8 (6.0 g/day divided into equal 2 doses), Dosing Day 10, read-out: Compound (1) plasma Cmax, Mean
  Cmax: 11500 ng/mL
6 g/day, Cohort 8 (6.0 g/day divided into equal 2 doses), Dosing Day 10, read-out: Compound (1) plasma Cmax, Median
  Cmax: 11300 ng/mL
6 g/day, Cohort 8 (6.0 g/day divided into equal 2 doses), Dosing Day 10, read-out: Compound (1) plasma T1/2, Mean (converted)
  half-life: 20.4 min
6 g/day, Cohort 8 (6.0 g/day divided into equal 2 doses), Dosing Day 10, read-out: Compound (1) plasma T1/2, Median (converted)
  half-life: 16.8 min
6 g/day, Cohort 10 (6.0 g/day in a single dose), Dosing Day 4, read-out: Compound (1) plasma AUC0-inf, Mean
  AUC(0-inf): 17200 ng·h/mL
6 g/day, Cohort 10 (6.0 g/day in a single dose), Dosing Day 4, read-out: Compound (1) plasma AUC0-inf, Median
  AUC(0-inf): 19000 ng·h/mL
6 g/day, Cohort 10 (6.0 g/day in a single dose), Dosing Day 4, read-out: Compound (1) plasma AUC0-tlast, Mean
  AUC(0-t): 17100 ng·h/mL
6 g/day, Cohort 10 (6.0 g/day in a single dose), Dosing Day 4, read-out: Compound (1) plasma AUC0-tlast, Median
  AUC(0-t): 18900 ng·h/mL
6 g/day, Cohort 10 (6.0 g/day in a single dose), Dosing Day 4, read-out: Compound (1) plasma Cmax, Mean
  Cmax: 21300 ng/mL
6 g/day, Cohort 10 (6.0 g/day in a single dose), Dosing Day 4, read-out: Compound (1) plasma Cmax, Median
  Cmax: 23500 ng/mL
6 g/day, Cohort 10 (6.0 g/day in a single dose), Dosing Day 4, read-out: Compound (1) plasma T1/2, Mean (converted)
  half-life: 24.6 min
6 g/day, Cohort 10 (6.0 g/day in a single dose), Dosing Day 4, read-out: Compound (1) plasma T1/2, Median (converted)
  half-life: 24 min
6 g/day, Cohort 10 (6.0 g/day in a single dose), Dosing Day 10, read-out: Compound (1) plasma AUC0-inf, Mean
  AUC(0-inf): 16400 ng·h/mL
6 g/day, Cohort 10 (6.0 g/day in a single dose), Dosing Day 10, read-out: Compound (1) plasma AUC0-inf, Median
  AUC(0-inf): 16900 ng·h/mL
6 g/day, Cohort 10 (6.0 g/day in a single dose), Dosing Day 10, read-out: Compound (1) plasma AUC0-tlast, Mean
  AUC(0-t): 16300 ng·h/mL
6 g/day, Cohort 10 (6.0 g/day in a single dose), Dosing Day 10, read-out: Compound (1) plasma AUC0-tlast, Median
  AUC(0-t): 16800 ng·h/mL
6 g/day, Cohort 10 (6.0 g/day in a single dose), Dosing Day 10, read-out: Compound (1) plasma Cmax, Mean
  Cmax: 18900 ng/mL
6 g/day, Cohort 10 (6.0 g/day in a single dose), Dosing Day 10, read-out: Compound (1) plasma Cmax, Median
  Cmax: 20000 ng/mL
6 g/day, Cohort 10 (6.0 g/day in a single dose), Dosing Day 10, read-out: Compound (1) plasma T1/2, Mean (converted)
  half-life: 21.6 min
6 g/day, Cohort 10 (6.0 g/day in a single dose), Dosing Day 10, read-out: Compound (1) plasma T1/2, Median (converted)
  half-life: 21 min
Cohort 8 (6.0 g/day divided into equal 2 doses), Dosing Day 4
  Tmax: 30 min
Cohort 9 (4.5 g/day in a single dose), Dosing Day 4
  Tmax: 30 min
